Patent US10315990B2, “Isothiocyanate compounds and isothiocyanate XPO1 protein inhibitor drugs thereof” (DRIVINGFORCE THERAPEUTICS Co., Ltd., priority 2015, dated 2019)
Like-named read-outs stand apart in the source and are kept apart here.

What was measured:
XPO1 protein = target: T1, XPO1 protein (Homo sapiens, UniProt O14980); assay: Inhibitory activity for XPO1 protein (NES-GFP nuclear export, laser confocal microscope); type: cell-based; details: NES-GFP nuclear export, cells treated for 2 hours
T1 construct: Sixteen hours later, NES-GFP plasmid was transfected with liposome; endogenous in cells
T1 sequence (O14980 whole entry, species assumed): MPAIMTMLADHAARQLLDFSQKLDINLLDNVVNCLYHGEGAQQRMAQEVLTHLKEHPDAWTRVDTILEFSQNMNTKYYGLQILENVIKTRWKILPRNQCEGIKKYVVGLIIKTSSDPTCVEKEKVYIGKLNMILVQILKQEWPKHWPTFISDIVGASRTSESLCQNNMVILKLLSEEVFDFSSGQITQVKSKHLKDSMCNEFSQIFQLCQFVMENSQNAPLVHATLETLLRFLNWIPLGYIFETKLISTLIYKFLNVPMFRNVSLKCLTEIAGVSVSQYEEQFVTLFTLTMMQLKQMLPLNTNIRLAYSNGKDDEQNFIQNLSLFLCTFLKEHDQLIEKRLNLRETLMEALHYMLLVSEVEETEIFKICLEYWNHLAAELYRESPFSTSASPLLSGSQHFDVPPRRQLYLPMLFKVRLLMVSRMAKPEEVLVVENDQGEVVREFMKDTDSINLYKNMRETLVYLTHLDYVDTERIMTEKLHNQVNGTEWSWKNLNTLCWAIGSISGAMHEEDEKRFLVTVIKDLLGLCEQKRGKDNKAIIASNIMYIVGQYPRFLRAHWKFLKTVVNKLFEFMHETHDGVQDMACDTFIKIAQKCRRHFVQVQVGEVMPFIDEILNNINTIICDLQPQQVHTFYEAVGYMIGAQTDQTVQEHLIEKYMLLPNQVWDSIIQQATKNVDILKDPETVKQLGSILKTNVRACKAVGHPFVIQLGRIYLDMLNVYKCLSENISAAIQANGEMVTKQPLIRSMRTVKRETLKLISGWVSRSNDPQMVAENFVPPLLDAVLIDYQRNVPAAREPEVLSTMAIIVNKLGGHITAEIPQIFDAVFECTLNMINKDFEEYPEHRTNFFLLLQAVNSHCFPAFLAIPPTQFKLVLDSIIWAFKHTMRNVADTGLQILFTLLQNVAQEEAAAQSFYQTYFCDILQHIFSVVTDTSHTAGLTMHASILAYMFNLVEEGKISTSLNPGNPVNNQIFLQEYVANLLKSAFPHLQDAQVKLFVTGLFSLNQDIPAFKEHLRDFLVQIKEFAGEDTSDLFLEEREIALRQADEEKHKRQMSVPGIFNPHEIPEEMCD
Source text: NES (nuclear export signal) is a nuclear export signal peptide recognized by XPO1 protein. XPO1 recognizes NES sequence peptide segment of biomacromolecule and exports the biomacromolecule out of nucleus. NES-GFP protein is obtained by co-expressing green fluorescence protein GFP and NES sequence peptide segment by using a eukaryotic expression plasmid. Inhibitory activity of the representative compound for XPO1 protein can be assessed by detecting influence of the compound on NES-GFP cell localization.
The cells were digested with trypsin, counted, and inoculated on 96-well plate in an amount of 1.5×10^4 cells per well. Sixteen hours later, NES-GFP plasmid was transfected with liposome.

HMLE-Snail cell line = assay: Formation of HMLE-Snail cell line spheroids; type: cell-based; details: read-out: Colony (%): cell colony number of drug-treated group/cell colony number of control group × 100%
Method: HMLE-Snail cell line is one of most classic cell models for studying tumor cell metastasis and EMT path. HMLE-Snail cell line highly expresses Snail protein, and thus one of most remarkable features thereof is that it has spherical cellular morphology (spheroid). […] The HMLE-Snail cell line used in the present invention was donated by Dr. Robert Weinberg from America Massachusetts Whitehead Institute. HMLE-Snail cells were suspended in a liquid culture medium (in which B-27 and N-2 were added, purchased from America Invitrogen Corporation) containing DMEM/F12 in a ratio of 1:1, in an amount of 1.0×10^3 cells/ml, and cultured in an ultra low attachment culture plate so as to allow spheroids to be formed. Seven days later, spheroids were collected by centrifugation, and counted. […] Docetaxel is a common clinical chemotherapy drug.

A2780 = assay: Inhibitory activity for high metastasis type ovarian cancer cell line (MTT or CCK-8); type: cell-based; details: Homo sapiens; A2780, 72 hours; read-out: IC50
Method: (§1) The two cell lines were inoculated on 96-well cell culture plate in an amount of 6000 cells per well and cultured at 37° C. for 24 hours, and then treated solely with the representative compound added therein and cultured. Seventy-two hours later, MTT or CCK-8 method was used to detect the inhibitory activity of the representative compound for the high metastasis type ovarian cancer cell lines.

HO-8910 = assay: as above; type: cell-based; details: HO-8910, 72 hours; read-out: IC50
Method: as §1

[1] = tested on: SK-OV3 (high metastasis type ovarian cancer cell line); assay: Ovarian cancer intraperitoneal metastasis animal model; type: in vivo, nudemice (BALB/c-nu/nu); details: Mus musculus, SK-OV-3, ip; for response vs control in vivo at 80 mg/kg: 504 h, read-out: T/C (%); for mortality at 80 mg/kg: 720 h, six mice per group, read-out: Mortality (within 30 days) (converted)
Method: The ovarian cancer intraperitoneal metastasis animal model is one of most classic animal models for studying anti-ovarian cancer metastasis drug. Sixty 5 to 6-week-old female nudemice with similar weight (BALB/c-nu/nu) were chosen. SK-OV3 (high metastasis type ovarian cancer cell line) stably expressing green fluorescence protein was screened, and prepared into a cell suspension of 2×10^6 cells/100 μl with serum-free PRMI1640 medium. […] Three weeks later, the cancer was detected with a small animal in vivo imaging apparatus (Xenogen, School of Medicine, Shanghai Jiaotong University) and photos thereof were taken. […] In the table, T represents the drug-treated group, and C represents the blank control group. T/C is (V/V0 of compound-treated group)/(V/V0 of blank control group) in which V represents the cancer volume of mouse on the day the detection was performed, and V0 represents the cancer volume of mouse on the day the administration begun.

IBD animal model = assay: Macroscopic pathological changes of IBD animal model (enteroclysis with TNBS); type: in vivo, SD rats; details: 80 mg/kg intragastrically daily, TNBS rats, score 0-5, 10 animals
Method: Eight-week-old male SD rats (10 rats per group) were fasted for 24 hours and anaesthetized with diethyl ether. 50% ethanol and TNBS (2,4,6-trinitrobenzenesulfonic acid) were mixed to prepare a solution. In the IBD model group, a tube made of vinyl resin was inserted 5 cm from anus, and enteroclysis was performed with the TNBS solution in a dose of 100 mg/kg. The rats were hung upside down 30 seconds later after the enteroclysis to ensure no leakage of the TNBS solution. In the control group, the TNBS solution was replaced with normal saline with which enteroclysis was performed. Seven days later after the enteroclysis with the TNBS solution or normal saline, animals were sacrificed and dissected. […] Two weeks later after treated with the drugs, the animals were sacrificed and dissected, and large intestine thereof was taken out and fixed in 4% formalin solution for 30 minutes. The large intestine of the animals was cut lengthwise from the mesentery side to take photos for rectum portion and measure the weight of rectum. Based on the macroscopic observation and judgment score (Table 2-1), ulceration and bleeding states of rectum portion were scored according to the macroscopic observation scoring standard.

TNF-α = assay: Serum TNF-α level of IBD animal model (ELISA); type: in vivo, SD rats; details: 80 mg/kg, three days after making the TNBS model
Source text: (§2) Inflammatory bowel disease is an autoimmune disease. […] The therapeutic effect of the representative compound for the immune system disease or inflammation can be assessed by detecting change in levels of some important cytokines such as TNF-α and IL-6 at downstream of the signal path.

IL-6 = assay: Serum IL-6 level of IBD animal model (ELISA); type: in vivo, SD rats; details: 80 mg/kg, three days after making the TNBS model
Source text: as §2

NCI-H1650 = assay: cells; type: cell-based; details: Homo sapiens
Method: (§3) NCI-H1975 and NCI-H1650 are two typical high metastasis type lung cancer cell lines. The therapeutic effect of the representative compound for the metastasis type lung cancers can be preliminarily assessed by detecting the inhibitory activity of the representative compound for the two cell lines. The lung cancer cell line was inoculated on 96-well cell culture plate in an amount of 6000 cells per well and cultured at 37° C. for 24 hours, and then treated solely with the compound added therein and cultured. Seventy-two hours later, MTT or CCK-8 method was used to detect the inhibitory activity of the compound for the two lung cancer cell lines.

NCI-H1975 = assay: cells; type: cell-based; details: Homo sapiens
Method: as §3

Jeko-1 = assay: Inhibitory activity for high metastasis type lymphoma cell line (MTT or CCK-8); type: cell-based; details: Homo sapiens
Method: (§4) Jeko-1, Raji and U2932 are three typical high metastasis type lymphoma cell lines. The lymphoma cell line was inoculated on 96-well cell culture plate in an amount of 6000 cells per well and cultured at 37° C. for 24 hours, and then treated solely with the compound added therein and cultured. Seventy-two hours later, MTT or CCK-8 method was used to detect the inhibitory activity of the compound for the two high metastasis type lymphoma cell lines.

Raji = assay: as above; type: cell-based; details: Homo sapiens
Method: as §4

U2932 = assay: as above; type: cell-based; details: Homo sapiens
Method: as §4

HCT116 = assay: Inhibitory activity for high metastasis type colon cancer cell line (MTT or CCK-8); type: cell-based; details: Homo sapiens
Method: as §4, with “SW620” for “Jeko-1, Raji”, “HCT116” for “U2932”, “two” for “three”, “colon cancer” for “lymphoma”

SW620 = assay: as above; type: cell-based; details: Homo sapiens
Method: as §4, with “SW620” for “Jeko-1, Raji”, “HCT116” for “U2932”, “two” for “three”, “colon cancer” for “lymphoma”

[2] = 10 μg/ml, treated for 24 hours, control = 100
[3] = 80 mg/kg intraperitoneal injection once a day for 3 weeks
[4] = NCI-H1650, 72 hours, read-out: IC50
[5] = NCI-H1975, 72 hours, read-out: IC50
[6] = Jeko-1, 72 hours, read-out: IC50
[7] = U2932, 72 hours, read-out: IC50
[8] = HCT-116, HCT116, 72 hours, read-out: IC50
[9] = SW-620, SW620, 72 hours, read-out: IC50

Row | SMILES | Activity (μM): inhibitory activity for XPO1 protein (full inhibitory concentration) (XPO1 protein) [µM] | activity at 10 µg/mL (HMLE-Snail cell line; [2]) [%] | response vs control in vivo at 80 mg/kg [1, 3] [%] | mortality at 80 mg/kg [1] [%] | Macroscopic pathological score (IBD animal model) | Serum TNF-α level, Animal-1 (TNF-α) [ng/mL] | Serum TNF-α level, Animal-2 (TNF-α) [ng/mL] | Serum TNF-α level, Animal-3 (TNF-α) [ng/mL] | Serum IL-6 level, Animal-1 (IL-6) [ng/mL] | Serum IL-6 level, Animal-2 (IL-6) [ng/mL] | Serum IL-6 level, Animal-3 (IL-6) [ng/mL] | IC50 (NCI-H1650; [4]) [µM] | IC50 (NCI-H1975; [5]) [µM] | IC50 (Jeko-1; [6]) [nM] | IC50 (Raji; 72 hours, read-out: IC50) [nM] | IC50 (U2932; [7]) [nM] | IC50 (HCT116; [8]) [nM] | IC50 (SW620; [9]) [µM] | other results
1 | [O-][S+](/C=C/CCN=C=S)c1ccc(Oc2ccccc2)cc1 (stereo not shown) [Compound I-27] | 0.5 to 1 | 25 to 30 | 25 | 0 |  |  |  |  |  |  |  |  |  |  |  |  |  |  | IC50 (A2780): 1200 nM; IC50 (HO-8910): 800 nM
2 | [O-][S+](/C=C/CCN=C=S)c1nnnn1-c1ccccc1 (stereo not shown) [Compound I-25] |  | 10 to 15 |  |  | 1.5 ± 0.3 | 1.0 | 0.5 | 0.8 | 0.6 | 0.7 | 0.5 | 0.22 | 0.25 | 150 | 180 | 250 |  |  | IC50 (A2780): 700 nM; IC50 (HO-8910): 300 nM
3 | [O-][S+](/C=C/CCN=C=S)c1cc(C(F)(F)F)cc(C(F)(F)F)c1 (stereo not shown) [Compound I-04] | 0.250 |  |  | 0 | 1.0 ± 0.5 |  |  |  |  |  |  |  |  |  |  |  |  |  | activity at 10 µg/mL (HMLE-Snail cell line; 24 h): 10 to 15%; IC50 (NCI-H1650; NCI-H1650, 72 h): 0.08 µM; IC50 (NCI-H1975; NCI-H1975, 72 h): 0.09 µM; IC50 (HCT116; HCT-116, 72 h): 70 nM; IC50 (SW620; SW-620, 72 h): 0.09 µM; IC50 (Jeko-1; JeKo-1, 72 h): 50 nM; IC50 (Raji; 72 h): 60 nM; IC50 (U2932; U2932, 72 h): 90 nM; response vs control in vivo at 80 mg/kg [1]: 19%
4 | CS/C=C/CCN=C=S [Compound F-06, reference compound] | 15 to 20 | 70 to 75 | 80 | 16.7 | 3.5 ± 0.2 | 2.3 | 2.0 | 2.2 | 2.8 | 2.5 | 2.3 | 16.3 | 17.2 | 12000 | 13500 | 14700 | 15600 | 17.8 | 
5 | CCC[S+]([O-])/C=C/CCN=C=S (stereo not shown) [Compound F-01, reference compound] | 10 to 15 | 60 to 65 | 37 | 0 |  | 2.0 | 1.7 | 1.9 | 1.8 | 1.9 | 2.0 | 5.4 | 6.9 | 3500 | 3700 | 5200 | 3500 | 4.1 | 
6 | [O-][S+](/C=C/CCN=C=S)C1CC1 (stereo not shown) [Compound F-03, reference compound] | 5 to 10 | 55 to 60 | 35 | 0 | 2.5 ± 0.6 | 1.7 | 1.6 | 1.5 | 1.7 | 1.8 | 1.8 | 4.9 | 5.8 | 3100 | 3200 | 4900 | 2900 | 3.3 | 
7 | COc1cc([S+]([O-])/C=C/CCN=C=S)cc(OC)c1OC (stereo not shown) [Compound I-06] | 0.200 | 10 to 15 |  |  | 1.0 ± 0.1 | 0.9 | 0.6 | 0.5 | 0.7 | 0.5 | 0.3 |  |  | 70 | 100 | 170 | 100 | 0.15 | 
